Source: patent US20100168102A9, “Amide Derivatives as Kinase Inhibitors” (Devgen NV, priority 2005, published 2010)

Assays:
PKC epsilon = target: T1, PKC epsilon (Homo sapiens, UniProt Q02156); test: Biochemical assay for PKC epsilon (fluorescence polarization, Protein Kinase C Assay Kit, Red); conditions: Table 2, compounds of Formula XIII; read-out: IC50 μM PKCε
T1 construct: purchased Invitrogen P2282
T1 sequence (Q02156 1-737): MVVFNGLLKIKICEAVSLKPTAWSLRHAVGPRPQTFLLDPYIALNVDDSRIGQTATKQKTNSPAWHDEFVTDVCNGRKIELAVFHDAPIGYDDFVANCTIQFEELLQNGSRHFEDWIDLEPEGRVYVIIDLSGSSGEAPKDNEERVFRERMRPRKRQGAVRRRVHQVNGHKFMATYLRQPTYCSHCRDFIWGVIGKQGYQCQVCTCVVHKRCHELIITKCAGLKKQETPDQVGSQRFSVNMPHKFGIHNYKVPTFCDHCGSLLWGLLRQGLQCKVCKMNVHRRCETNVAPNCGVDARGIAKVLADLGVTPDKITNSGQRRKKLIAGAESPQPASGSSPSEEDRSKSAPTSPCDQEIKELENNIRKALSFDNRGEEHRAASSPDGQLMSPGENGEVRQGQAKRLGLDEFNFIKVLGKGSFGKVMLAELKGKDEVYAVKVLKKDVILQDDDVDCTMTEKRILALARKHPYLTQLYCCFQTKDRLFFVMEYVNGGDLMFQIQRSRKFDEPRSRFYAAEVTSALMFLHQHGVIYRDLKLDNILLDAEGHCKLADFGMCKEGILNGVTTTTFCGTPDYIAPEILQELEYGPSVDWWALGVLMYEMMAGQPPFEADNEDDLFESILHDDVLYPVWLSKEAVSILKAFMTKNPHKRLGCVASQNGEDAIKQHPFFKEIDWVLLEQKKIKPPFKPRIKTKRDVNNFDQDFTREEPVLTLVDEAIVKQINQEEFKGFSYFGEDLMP
Procedure, shortened: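 PKC epsilon at 10 ng/ml final was preincubated 30 min at room temperature with compound in HEPES pH 7.4 with DTT and Triton X-100. ATP/protein substrate was then added in buffer with MgCl2 and CaCl2 for 80 min. The reaction was stopped with EDTA, phosphorylation was detected by fluorescence polarization with rhodamine tracer and anti-phosphoserine antibody, and IC50 values came from curve fits.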

human ROCKα/ROCKII mix = target: T2, human ROCKα/ROCKII mix (Homo sapiens, UniProt O75116); test: Biochemical assay for ROCK (fluorescence polarization, ROCK IMAP Kit); conditions: Table 2, compounds of Formula XIII
T2 construct: purchased Upstate Biotechnology 14-451
T2 sequence (O75116 11-552 limits assumed): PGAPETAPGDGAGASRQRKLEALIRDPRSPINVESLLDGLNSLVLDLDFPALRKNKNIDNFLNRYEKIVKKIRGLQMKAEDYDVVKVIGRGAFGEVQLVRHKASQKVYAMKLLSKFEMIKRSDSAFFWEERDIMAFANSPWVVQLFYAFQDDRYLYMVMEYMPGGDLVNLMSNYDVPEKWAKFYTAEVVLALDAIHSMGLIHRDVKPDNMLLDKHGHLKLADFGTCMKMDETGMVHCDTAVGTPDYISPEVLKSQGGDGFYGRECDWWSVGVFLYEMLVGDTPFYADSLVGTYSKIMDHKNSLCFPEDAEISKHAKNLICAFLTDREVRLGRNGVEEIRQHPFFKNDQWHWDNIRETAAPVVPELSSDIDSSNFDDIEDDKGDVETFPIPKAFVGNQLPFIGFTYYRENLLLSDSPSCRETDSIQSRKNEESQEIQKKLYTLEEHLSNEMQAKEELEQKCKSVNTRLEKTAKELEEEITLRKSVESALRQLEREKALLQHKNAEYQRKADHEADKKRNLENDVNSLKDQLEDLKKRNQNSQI

Row | Compound | IC50 (PKC epsilon) | IC50 (human ROCKα/ROCKII mix)
1 | Cc1ccc(C(=O)NCC(N)c2ccc(C(=O)Nc3ccncc3)cc2)cc1 (stereo not shown) [Compound 86, 4-[1-amino-2-(4-methyl-benzoylamino)-ethyl]-N-pyridin-4-yl-benzamide] | 5 to 50 µM | 0.5 to 5 µM
2 | NC(CNC(=O)c1ccccc1-c1ccccc1)c1ccc(C(=O)Nc2ccncc2)cc1 (stereo not shown) [Compound 87, Biphenyl-2-carboxylic acid {2-amino-2-[4-(pyridin-4-ylcarbamoyl)-phenyl]-ethyl}-amide] | 0.5 to 5 µM | 0.5 to 5 µM
3 | NC(CNC(=O)c1ccc(-c2ccccc2)cc1)c1ccc(C(=O)Nc2ccncc2)cc1 (stereo not shown) [Compound 88, Biphenyl-4-carboxylic acid {2-amino-2-[4-(pyridin-4-ylcarbamoyl)-phenyl]-ethyl}-amide] | 5 to 50 µM | 0.5 to 5 µM
4 | NC(CNC(=O)c1cccc(Cl)c1)c1ccc(C(=O)Nc2ccncc2)cc1 (stereo not shown) [Compound 89, 4-[1-amino-2-(3-chloro-benzoylamino)-ethyl]-N-pyridin-4-yl-benzamide] | 0.5 to 5 µM | 0.5 to 5 µM
5 | NC(CNC(=O)c1cccc(F)c1)c1ccc(C(=O)Nc2ccncc2)cc1 (stereo not shown) [Compound 92, 4-[1-amino-2-(3-fluoro-benzoylamino)-ethyl]-N-pyridin-4-yl-benzamide] | 0.5 to 5 µM | 0.5 to 5 µM
6 | N#Cc1ccc(C(=O)NCC(N)c2ccc(C(=O)Nc3ccncc3)cc2)cc1 (stereo not shown) [Compound 95, 4-[1-amino-2-(4-cyano-benzoylamino)-ethyl]-N-pyridin-4-yl-benzamide] | 5 to 50 µM | 0.5 to 5 µM
7 | CS(=O)(=O)c1cccc(C(=O)NCC(N)c2ccc(C(=O)Nc3ccncc3)cc2)c1 (stereo not shown) [Compound 96, 4-[1-amino-2-(3-methanesulfonyl-benzoylamino)-ethyl]-N-pyridin-4-yl-benzamide] | 0.5 to 5 µM | 0.5 to 5 µM
8 | CNS(=O)(=O)c1ccc(C(=O)NCC(N)c2ccc(C(=O)Nc3ccncc3)cc2)cc1 (stereo not shown) [Compound 98, 4-[1-amino-2-(4-methylsulfamoyl-benzoylamino)-ethyl]-N-pyridin-4-yl-benzamide] | 5 to 50 µM | 0.5 to 5 µM
9 | NC(CNC(=O)c1cccc(S(=O)(=O)Nc2ccccc2)c1)c1ccc(C(=O)Nc2ccncc2)cc1 (stereo not shown) [Compound 99, 4-[1-amino-2-(3-phenylsulfamoyl-benzoylamino)-ethyl]-N-pyridin-4-yl-benzamide] | 0.5 to 5 µM | 0.5 to 5 µM
10 | NC(CNC(=O)c1ccncc1)c1ccc(C(=O)Nc2ccncc2)cc1 (stereo not shown) [Compound 104, N-{2-Amino-2-[4-(pyridin-4-ylcarbamoyl)-phenyl]-ethyl}-isonicotinamide] | 5 to 50 µM | 0.5 to 5 µM
11 | NC(CNC(=O)c1ccccn1)c1ccc(C(=O)Nc2ccncc2)cc1 (stereo not shown) [Compound 105, Pyridine-2-carboxylic acid {2-amino-2-[4-(pyridin-4-ylcarbamoyl)-phenyl]-ethyl}-amide] | 5 to 50 µM | 0.5 to 5 µM
12 | NC(CNC(=O)c1cnccn1)c1ccc(C(=O)Nc2ccncc2)cc1 (stereo not shown) [Compound 108, Pyrazine-2-carboxylic acid {2-amino-2-[4-(pyridin-4-ylcarbamoyl)-phenyl]-ethyl}-amide] | 5 to 50 µM | 0.5 to 5 µM
13 | NC(CNC(=O)c1ccc(=O)[nH]n1)c1ccc(C(=O)Nc2ccncc2)cc1 (stereo not shown) [Compound 109, 6-Oxo-1,6-dihydro-pyridazine-3-carboxylic acid {2-amino-2-[4-(pyridin-4-ylcarbamoyl)-phenyl]-ethyl}-amide] | 5 to 50 µM | 0.5 to 5 µM
14 | NC(CNC(=O)c1nccc2ccccc12)c1ccc(C(=O)Nc2ccncc2)cc1 (stereo not shown) [Compound 110, Isoquinoline-1-carboxylic acid {2-amino-2-[4-(pyridin-4-ylcarbamoyl)-phenyl]-ethyl}-amide] | 0.5 to 5 µM | 0.5 to 5 µM
15 | NC(CNC(=O)c1cnnc2ccccc12)c1ccc(C(=O)Nc2ccncc2)cc1 (stereo not shown) [Compound 113, Cinnoline-4-carboxylic acid {2-amino-2-[4-(pyridin-4-ylcarbamoyl)-phenyl]-ethyl}-amide] | 0.5 to 5 µM | 0.5 to 5 µM
16 | NC(CNC(=O)c1ccc2ncccc2c1)c1ccc(C(=O)Nc2ccncc2)cc1 (stereo not shown) [Compound 114, Quinoline-6-carboxylic acid {2-amino-2-[4-(pyridin-4-ylcarbamoyl)-phenyl]-ethyl}-amide] | 5 to 50 µM | 0.5 to 5 µM
17 | NC(CNC(=O)c1ccsc1)c1ccc(C(=O)Nc2ccncc2)cc1 (stereo not shown) [Compound 115, Thiophene-3-carboxylic acid {2-amino-2-[4-(pyridin-4-ylcarbamoyl)-phenyl]-ethyl}-amide] | 0.5 to 5 µM | 0.05 to 0.5 µM
18 | NC(CNC(=O)c1cccs1)c1ccc(C(=O)Nc2ccncc2)cc1 (stereo not shown) [Compound 116, Thiophene-2-carboxylic acid {2-amino-2-[4-(pyridin-4-ylcarbamoyl)-phenyl]-ethyl}-amide] | 0.05 to 0.5 µM | 0.05 to 0.5 µM
19 | CC(=NOC(C)(C)C)c1ccc(C(=O)NCC(N)c2ccc(C(=O)Nc3ccncc3)cc2)s1 (stereo not shown) [Compound 118, 5-(1-tert-Butoxyimino-ethyl)-thiophene-2-carboxylic acid {2-amino-2-[4-(pyridin-4-ylcarbamoyl)-phenyl]-ethyl}-amide] | 5 to 50 µM | 0.5 to 5 µM
20 | NC(CNC(=O)c1ccoc1)c1ccc(C(=O)Nc2ccncc2)cc1 (stereo not shown) [Compound 119, Furan-3-carboxylic acid {2-amino-2-[4-(pyridin-4-ylcarbamoyl)-phenyl]-ethyl}-amide] | 0.5 to 5 µM | 0.05 to 0.5 µM
21 | Cn1cccc1C(=O)NCC(N)c1ccc(C(=O)Nc2ccncc2)cc1 (stereo not shown) [Compound 121, 1-Methyl-1H-pyrrole-2-carboxylic acid {2-amino-2-[4-(pyridin-4-ylcarbamoyl)-phenyl]-ethyl}-amide] | 0.5 to 5 µM | 0.5 to 5 µM

Results, then the compound that gave them:

Row | IC50 (PKC epsilon) | IC50 (human ROCKα/ROCKII mix) | Compound
22 | 5 to 50 µM | 0.5 to 5 µM | NC(CNC(=O)c1ccc(Cl)cc1)c1ccc(C(=O)Nc2ccncc2)cc1 (stereo not shown) [Compound 90, 4-[1-amino-2-(4-chloro-benzoylamino)-ethyl]-N-pyridin-4-yl-benzamide]
23 | 0.5 to 5 µM | 0.5 to 5 µM | NC(CNC(=O)c1cccc(Br)c1)c1ccc(C(=O)Nc2ccncc2)cc1 (stereo not shown) [Compound 91, 4-[1-amino-2-(3-bromo-benzoylamino)-ethyl]-N-pyridin-4-yl-benzamide]
24 | 0.5 to 5 µM | 0.5 to 5 µM | NC(CNC(=O)c1ccc(F)cc1)c1ccc(C(=O)Nc2ccncc2)cc1 (stereo not shown) [Compound 93, 4-[1-amino-2-(4-fluoro-benzoylamino)-ethyl]-N-pyridin-4-yl-benzamide]
25 | 0.5 to 5 µM | 0.5 to 5 µM | N#Cc1cccc(C(=O)NCC(N)c2ccc(C(=O)Nc3ccncc3)cc2)c1 (stereo not shown) [Compound 94, 4-[1-amino-2-(3-cyano-benzoylamino)-ethyl]-N-pyridin-4-yl-benzamide]
26 | 0.5 to 5 µM | 0.5 to 5 µM | CCNS(=O)(=O)c1cccc(C(=O)NCC(N)c2ccc(C(=O)Nc3ccncc3)cc2)c1 (stereo not shown) [Compound 97, 4-[1-amino-2-(3-ethylsulfamoyl-benzoylamino)-ethyl]-N-pyridin-4-yl-benzamide]
27 | 5 to 50 µM | 0.5 to 5 µM | NC(CNC(=O)c1ccc(C(=O)c2ccccc2)cc1)c1ccc(C(=O)Nc2ccncc2)cc1 (stereo not shown) [Compound 100, 4-[1-amino-2-(4-benzoyl-benzoylamino)-ethyl]-N-pyridin-4-yl-benzamide]
28 | 0.5 to 5 µM | 0.5 to 5 µM | NC(CNC(=O)c1cccc(Cn2cccn2)c1)c1ccc(C(=O)Nc2ccncc2)cc1 (stereo not shown) [Compound 103, 4-{1-amino-2-[(3-pyrazol-1ylmethyl)-benzoylamino]-ethyl}-N-pyridin-4-yl-benzamide]
29 | 0.5 to 5 µM | 0.5 to 5 µM | NC(CNC(=O)c1cccnc1)c1ccc(C(=O)Nc2ccncc2)cc1 (stereo not shown) [Compound 106, N-{2-Amino-2-[4-(pyridin-4-ylcarbamoyl)-phenyl]-ethyl}-nicotinamide]
30 | 0.5 to 5 µM | 0.5 to 5 µM | NC(CNC(=O)c1ccnc2ccccc12)c1ccc(C(=O)Nc2ccncc2)cc1 (stereo not shown) [Compound 111, Quinoline-4-carboxylic acid {2-amino-2-[4-(pyridin-4-ylcarbamoyl)-phenyl]-ethyl}-amide]
31 | 0.5 to 5 µM | 0.5 to 5 µM | Cc1ccc(C(=O)NCC(N)c2ccc(C(=O)Nc3ccncc3)cc2)s1 (stereo not shown) [Compound 117, 5-Methyl-thiophene-2-carboxylic acid {2-amino-2-[4-(pyridin-4-ylcarbamoyl)-phenyl]-ethyl}-amide]
32 | 0.5 to 5 µM | 0.5 to 5 µM | NC(CNC(=O)c1ccc([N+](=O)[O-])o1)c1ccc(C(=O)Nc2ccncc2)cc1 (stereo not shown) [Compound 120, 5-Nitro-furan-2-carboxylic acid {2-amino-2-[4-(pyridin-4-ylcarbamoyl)-phenyl]-ethyl}-amide]
